Reference: ChEMBL document CHEMBL2401653, “Synthesis, structure-property relationships and pharmacokinetic evaluation of ethyl 6-aminonicotinate sulfonylureas as antagonists of the P2Y₁₂ receptor” (Eur J Med Chem, 2013)
≈ marks a conversion by molar mass, not a printed value.

What was measured:
[1] = Apparent Permeability across apical to basolateral side in human Caco2 cells at 1 to 10 uM measured at 30 to 90 mins by LC/MS analysis; type: ADME, cell-based; settings: Caco-2
[2] = Stability of the compound in MeCN assessed as compound remaining at room temperature; type: physicochemical
Liver microsomes [3] = assay: Intrinsic clearance in rat liver microsomes at 1 umol/L by LC/MS analysis in presence of NADPH; type: ADME, Microsome; settings: 1 µM
[4] = 1-octanol-phosphate buffer distribution coefficient, log D of the compound at pH 7.4 after 2 days by shake flask method; type: physicochemical
[5] = Aqueous solubility of the compound; type: physicochemical; settings: buffer
Liver microsomes [6] = assay: Intrinsic clearance in human liver microsomes at 1 umol/L by LC/MS analysis in presence of NADPH; type: ADME, Microsome; settings: 1 µM
Plasma = assay: Metabolic stability in rat plasma by HRMS analysis; type: ADME, cell-free
[7] = Oral bioavailability in rat; type: ADME, organism-based; settings: in vivo
[8] = Clearance in iv dosed rat; type: ADME, organism-based; settings: in vivo
P2Y purinoceptor 12 [9] = biological target: T1, P2Y purinoceptor 12 (Homo sapiens, UniProt Q9H244)
Description: Displacement of [125I]-AZ11931285 from P2Y12 receptor (unknown origin) after 1 hr by scintillation counting analysis

[10] = Fraction unbound in human plasma; type: ADME, cell-free
P2Y purinoceptor 12 [11] = biological target: T1, P2Y purinoceptor 12; remark: listed apart in the source
[12] = Half life in po dosed rat; type: ADME, organism-based; settings: in vivo
[13] = Half life in iv dosed rat; type: ADME, organism-based; settings: in vivo
Liver microsomes [14] = assay: Metabolic stability in rat liver microsomes at 1 umol/L by LC/MS analysis in absence of NADPH; type: ADME, Microsome; settings: 1 µM
[15] = Stability of the compound in EtOH at room temperature after 21 days by LC/MS analysis; type: physicochemical; settings: 504 h
Liver microsomes [16] = assay: Metabolic stability in human liver microsomes at 1 umol/L by LC/MS analysis in absence of NADPH; type: ADME, Microsome; settings: 1 µM
[17] = Stability of the compound in MeCN at room temperature after 21 days by LC/MS analysis; type: physicochemical; settings: 504 h
physchem [18] = settings: HBSS buffer, pH 7.4
Description: Kinetic solubility in HBSS buffer at pH 7.4 after 16 hrs by LC-UV/MS analysis

physchem [19] = settings: HBSS buffer, pH 6.8
Description: Kinetic solubility in HBSS buffer at pH 6.8 after 16 hrs by LC-UV/MS analysis

[20] = Stability of the compound in MeCN assessed as compound remaining at 5 degC after 4 months; type: physicochemical; settings: read-out: Stability

T1 sequence (Q9H244 whole entry): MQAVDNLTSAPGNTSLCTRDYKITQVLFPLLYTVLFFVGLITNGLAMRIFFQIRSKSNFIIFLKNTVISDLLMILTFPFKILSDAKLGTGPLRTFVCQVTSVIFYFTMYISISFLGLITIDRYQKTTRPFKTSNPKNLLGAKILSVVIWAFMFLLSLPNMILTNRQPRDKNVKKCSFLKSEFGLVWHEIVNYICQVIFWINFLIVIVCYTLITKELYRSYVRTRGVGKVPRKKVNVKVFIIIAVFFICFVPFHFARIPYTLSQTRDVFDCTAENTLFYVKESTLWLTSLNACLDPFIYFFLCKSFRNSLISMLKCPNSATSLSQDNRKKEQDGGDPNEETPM

CCOC(=O)c1cc(C#N)c(N2CC(NC(=O)NS(=O)(=O)c3ccc(Cl)s3)C2)nc1C
Papp A→B at up to 10 µM [1]: 0.11 ×10⁻⁶ cm/s
Stability [2]: Stable
Intrinsic clearance (Liver microsomes [3]): > 104 µL/min/mg
logD at 48 h [4]: 0.8
solubility [5]: 83 µM (≈ 40.2 µg/mL)

CCOC(=O)c1cc(C#N)c(N2CC(NC(=O)NS(=O)(=O)c3ccccc3)C2)nc1C
Intrinsic clearance (CLint) (Liver microsomes [6]): < 13 µL/min/mg
Papp A→B at up to 10 µM [1]: 0.41 ×10⁻⁶ cm/s
Stability (Plasma): Unstable
Stability [2]: Stable
bioavailability [7]: 39%
Intrinsic clearance (Liver microsomes [3]): < 19 µL/min/mg
clearance [8]: 13 mL/min/kg
logD at 48 h [4]: 0.4
IC50 (P2Y purinoceptor 12 [9]): 62 nM
fraction unbound [10]: < 0.015
IC50 (P2Y purinoceptor 12 [11]): 190 nM
half-life [12]: 9 h
half-life [13]: 1.7 h

CCOC(=O)c1cc(C#N)c(N2CC(NC(=O)NS(=O)(=O)Cc3ccccc3)C2)nc1C
Papp A→B at up to 10 µM [1]: 1.2 ×10⁻⁶ cm/s
Stability (Plasma): Unstable
Stability [2]: Stable
bioavailability [7]: 3%
clearance [8]: 31 mL/min/kg
logD at 48 h [4]: 1.1
IC50 (P2Y purinoceptor 12 [9]): 79 nM
fraction unbound [10]: < 0.015
IC50 (P2Y purinoceptor 12 [11]): 82 nM
half-life [12]: 1.3 h
half-life [13]: 0.55 h

CCOC(=O)c1cnc(N2CC(NC(=O)NS(=O)(=O)c3ccccc3)C2)c(Cl)c1
Papp A→B at up to 10 µM [1]: 3.9 ×10⁻⁶ cm/s
Stability (Plasma): Unstable
Stability [2]: Stable
bioavailability [7]: 20%
Stability (Liver microsomes [14]): Stable
clearance [8]: 29 mL/min/kg
logD at 48 h [4]: 0.8
Stability [15]: Stable
IC50 (P2Y purinoceptor 12 [9]): 430 nM
fraction unbound [10]: < 0.015
IC50 (P2Y purinoceptor 12 [11]): 380 nM
half-life [12]: 2.1 h
Stability (Liver microsomes [16]): Stable
half-life [13]: 0.17 h
Stability [17]: Stable

CCOC(=O)c1cc(C#N)c(N2CCN(C(=O)Nc3ccccc3)CC2)nc1C(F)(F)F
Stability [2]: Stable
logD at 48 h [4]: 5
solubility [5]: < 0.1 µM

CCOC(=O)c1cnc(N2CCC(NC(=O)NS(=O)(=O)c3ccccc3)CC2)c(Cl)c1
Stability [2]: Stable
logD at 48 h [4]: 1.5
Stability [15]: Unstable
IC50 (P2Y purinoceptor 12 [9]): 4800 nM
IC50 (P2Y purinoceptor 12 [11]): 3200 nM
Stability [17]: Stable

CCOC(=O)c1cnc(N2CCN(C(=O)NS(=O)(=O)c3ccc(Cl)cc3)CC2)c(Cl)c1
Intrinsic clearance (CLint) (Liver microsomes [6]): > 70 µL/min/mg
Papp A→B at up to 10 µM [1]: 1.2 ×10⁻⁶ cm/s
Stability [2]: Stable
Intrinsic clearance (Liver microsomes [3]): > 104 µL/min/mg
logD at 48 h [4]: 1.3
Stability [15]: Unstable
IC50 (P2Y purinoceptor 12 [9]): 520 nM
IC50 (P2Y purinoceptor 12 [11]): 380 nM
Stability [17]: Stable

CCOC(=O)c1cnc(N2CCN(C(=O)NS(=O)(=O)c3ccc(C)cc3)CC2)c(Cl)c1
Intrinsic clearance (CLint) (Liver microsomes [6]): > 70 µL/min/mg
Papp A→B at up to 10 µM [1]: 2.5 ×10⁻⁶ cm/s
Stability [2]: Stable
Intrinsic clearance (Liver microsomes [3]): > 104 µL/min/mg
Stability [15]: Unstable
IC50 (P2Y purinoceptor 12 [9]): 300 nM
IC50 (P2Y purinoceptor 12 [11]): 300 nM
solubility kinetic at 16 h (physchem [18]): 490 µM (≈ 229 µg/mL)
Stability [17]: Stable

CCOC(=O)c1cnc(N2CCN(C(=O)NS(=O)(=O)c3ccc(Cl)s3)CC2)c(Cl)c1
Intrinsic clearance (CLint) (Liver microsomes [6]): > 70 µL/min/mg
Papp A→B at up to 10 µM [1]: 0.11 ×10⁻⁶ cm/s
Stability (Plasma): Unstable
Stability [2]: Stable
bioavailability [7]: 15%
Stability (Liver microsomes [14]): Stable
Intrinsic clearance (Liver microsomes [3]): > 104 µL/min/mg
clearance [8]: 36 mL/min/kg
logD at 48 h [4]: 0.9
IC50 (P2Y purinoceptor 12 [9]): 90 nM
fraction unbound [10]: < 0.015
IC50 (P2Y purinoceptor 12 [11]): 100 nM
half-life [12]: 2.4 h
Stability (Liver microsomes [16]): Stable
half-life [13]: 0.92 h

CCOC(=O)c1cc(C#N)c(N2CCN(C(=O)NCCc3cccs3)CC2)nc1C(F)(F)F
solubility kinetic at 16 h (physchem [19]): 15 µM (≈ 7.22 µg/mL)
Stability [2]: Stable
logD at 48 h [4]: 5
IC50 (P2Y purinoceptor 12 [9]): 1300 nM
IC50 (P2Y purinoceptor 12 [11]): 510 nM

CCOC(=O)c1cc(C#N)c(N2CCN(C(=O)NS(=O)(=O)c3ccc(Cl)s3)CC2)nc1C(F)(F)F
Papp A→B at up to 10 µM [1]: 0.076 ×10⁻⁶ cm/s
Stability [2]: Stable
Stability (Liver microsomes [14]): Stable
remaining at 2922 h [20]: 10%
logD at 48 h [4]: 1.1
IC50 (P2Y purinoceptor 12 [9]): 79 nM
IC50 (P2Y purinoceptor 12 [11]): 39 nM
Stability (Liver microsomes [16]): Stable

CCOC(=O)c1cnc(N2CCN(C(=O)NS(=O)(=O)c3ccccc3C)CC2)c(Cl)c1
Intrinsic clearance (CLint) (Liver microsomes [6]): > 70 µL/min/mg
Stability [2]: Stable
Intrinsic clearance (Liver microsomes [3]): > 104 µL/min/mg
IC50 (P2Y purinoceptor 12 [9]): 150 nM
IC50 (P2Y purinoceptor 12 [11]): 260 nM
solubility kinetic at 16 h (physchem [18]): 210 µM (≈ 98.1 µg/mL)

CCOC(=O)c1cc(C#N)c(N2CCN(C(=O)NS(=O)(=O)c3ccccc3)CC2)nc1C(F)(F)F
Intrinsic clearance (CLint) (Liver microsomes [6]): > 70 µL/min/mg
Papp A→B at up to 10 µM [1]: 0.6 ×10⁻⁶ cm/s
Stability [2]: Stable
Stability (Liver microsomes [14]): Stable
Intrinsic clearance (Liver microsomes [3]): > 104 µL/min/mg
IC50 (P2Y purinoceptor 12 [9]): 170 nM
IC50 (P2Y purinoceptor 12 [11]): 220 nM
Stability (Liver microsomes [16]): Stable

CCOC(=O)c1cnc(N2CCN(C(=O)Nc3ccccc3)CC2CCC(=O)O)c(Cl)c1 (racemic)
solubility kinetic at 16 h (physchem [19]): 96 µM (≈ 44.2 µg/mL)
Stability [2]: Stable
IC50 (P2Y purinoceptor 12 [9]): 680 nM
IC50 (P2Y purinoceptor 12 [11]): 2200 nM

CCOC(=O)c1cc(C#N)c(N2CCN(C(=O)NS(=O)(=O)c3ccc(C)cc3)CC2)nc1C(F)(F)F
Intrinsic clearance (CLint) (Liver microsomes [6]): > 70 µL/min/mg
Papp A→B at up to 10 µM [1]: 0.22 ×10⁻⁶ cm/s
Stability [2]: Stable
bioavailability [7]: 20%
Intrinsic clearance (Liver microsomes [3]): > 104 µL/min/mg
remaining at 2922 h [20]: 52%
clearance [8]: 89 mL/min/kg
logD at 48 h [4]: 1.3
IC50 (P2Y purinoceptor 12 [9]): 120 nM
IC50 (P2Y purinoceptor 12 [11]): 90 nM
half-life [12]: 0.65 h
half-life [13]: 1.5 h

CCOC(=O)c1cc(C#N)c(N2CCN(C(=O)NS(=O)(=O)c3ccc(Cl)s3)C(CCC(=O)O)C2)nc1C(F)(F)F (racemic)
Intrinsic clearance (CLint) (Liver microsomes [6]): < 13 µL/min/mg
Papp A→B at up to 10 µM [1]: 0.19 ×10⁻⁶ cm/s
Stability (Plasma): Unstable
Stability [2]: Stable
bioavailability [7]: 0.83%
Intrinsic clearance (Liver microsomes [3]): > 104 µL/min/mg
clearance [8]: 46 mL/min/kg
IC50 (P2Y purinoceptor 12 [9]): 95 nM
fraction unbound [10]: < 0.015
IC50 (P2Y purinoceptor 12 [11]): 110 nM
half-life [12]: 4 h
half-life [13]: 0.62 h

CCOC(=O)c1cnc(N2CCN(C(=O)NS(=O)(=O)c3ccccc3)CC2)c(Cl)c1
solubility kinetic at 16 h (physchem [19]): 100 µM (≈ 45.3 µg/mL)
Intrinsic clearance (CLint) (Liver microsomes [6]): > 70 µL/min/mg
Papp A→B at up to 10 µM [1]: 0.28 ×10⁻⁶ cm/s
Stability [2]: Stable
Stability (Liver microsomes [14]): Stable
Intrinsic clearance (Liver microsomes [3]): > 104 µL/min/mg
IC50 (P2Y purinoceptor 12 [9]): 180 nM
IC50 (P2Y purinoceptor 12 [11]): 220 nM
Stability (Liver microsomes [16]): Stable

CCOC(=O)c1cc(C#N)c(N2CCN(C(=O)NS(=O)(=O)c3ccccc3)CC2)nc1C
Papp A→B at up to 10 µM [1]: 0.3 ×10⁻⁶ cm/s
Stability [2]: Stable
Stability (Liver microsomes [14]): Stable
IC50 (P2Y purinoceptor 12 [9]): 140 nM
IC50 (P2Y purinoceptor 12 [11]): 130 nM
Stability (Liver microsomes [16]): Stable

CCOC(=O)c1cc(C#N)c(N2CCN(C(=O)NS(=O)(=O)c3ccc(Cl)s3)CC2)nc1C
Intrinsic clearance (CLint) (Liver microsomes [6]): > 70 µL/min/mg
Papp A→B at up to 10 µM [1]: 0.058 ×10⁻⁶ cm/s
Stability [2]: Stable
Stability (Liver microsomes [14]): Stable
Intrinsic clearance (Liver microsomes [3]): > 104 µL/min/mg
logD at 48 h [4]: 1
IC50 (P2Y purinoceptor 12 [9]): 42 nM
solubility [5]: 90 µM (≈ 44.8 µg/mL)
IC50 (P2Y purinoceptor 12 [11]): 34 nM
Stability (Liver microsomes [16]): Stable
